The values that follow come from BindingDB's records for doi:10.1016/j.bmc.2012.08.006 (Chungnam National University, 2012).

The experiment can be described thus: Inhibition of IL-5 in mouse Y16 cells after 48 hrs by WST1 assay. Background: Tetrazolium assays rely on reduction of a dye to a coloured formazan, in cell work by metabolically active cells.
Regarding `O=c1c(CN(CCO)Cc2ccccc2)coc2cccc(OCC3CCCCC3)c12`, inhibition was half-maximal at 16.1 µM (IC50).

Regarding `CCCCN(CCO)Cc1coc2cccc(OCC3CCCCC3)c2c1=O`, the IC50 (commonly the concentration at which inhibition is half-maximal) was found to be 9.2 µM.

Regarding `CN(CCO)Cc1coc2cccc(OCC3CCCCC3)c2c1=O`, the IC50 came out at 30.3 µM.

For `O=c1c(CN(CCO)Cc2ccc(Cl)cc2)coc2cccc(OCC3CCCCC3)c12`, the IC50 was found to be 10.3 µM.

Turning to `Cc1ccc(CN(CCO)Cc2coc3cccc(OCC4CCCCC4)c3c2=O)cc1`, 9.4 µM corresponded to half-maximal inhibition (IC50).

`O=c1c(CN(CCO)c2ccccc2)coc2cccc(OCC3CCCCC3)c12`: inhibition was half-maximal at 14.3 µM (IC50).

Regarding `CCCN(CCO)Cc1coc2cccc(OCC3CCCCC3)c2c1=O`, inhibition was half-maximal at 15.4 µM (IC50).

`O=c1c(CN(CCO)Cc2ccncc2)coc2cccc(OCC3CCCCC3)c12` displayed an IC50 of 14.2 µM.

The molecule `O=c1c(CN(CCO)Cc2ccc(O)cc2)coc2cccc(OCC3CCCCC3)c12` showed an IC50 of 9.1 µM.

The molecule `O=c1c(CN(CCO)CC2CCCCC2)coc2cccc(OCC3CCCCC3)c12` came in with a 50% inhibitory concentration (IC50) of 12.4 µM.

As to `COc1ccc(CN(CCO)Cc2coc3cccc(OCC4CCCCC4)c3c2=O)cc1`, the IC50 was 9 µM.

For `O=c1c(CN(CCO)C2CCCCC2)coc2cccc(OCC3CCCCC3)c12`, the IC50 came out at 9 µM.

As for `CC(C)N(CCO)Cc1coc2cccc(OCC3CCCCC3)c2c1=O`, the IC50 worked out at 10.2 µM.

`CCN(CCO)Cc1coc2cccc(OCC3CCCCC3)c2c1=O` gave an IC50 of 19.5 µM.
